# Experimental data from ChEMBL document CHEMBL5543173, “Discovery of a New Anti-Inflammatory Agent from Anemoside B4 Derivatives and Its Therapeutic Effect on Colitis by Targeting Pyruvate Carboxylase” (J Med Chem, 2024).
# Activity calls are given as the source filed them. The rule behind the calls is not given here.
# Columns and labels:
# [1] = system: Mus musculus; assay: Anti-colitis activity in ICR mouse model of DSS-induced colitis assessed as decrease in DAI score at 15 to 60 mg/kg, IG treated for 9 days consecutively; type: functional, organism-based; details: dose 15-60 mg/kg, time 9.0 day
# [2] = MRT (0 to t) in ICR mouse at 15 mg/kg, IG measured for 12 hrs by LC-MS/MS analysis; type: ADME, organism-based; details: in vivo, po
# [3] = Toxicity in ICR mouse assessed as change in heart index at 300 mg/kg, IG measured for 9 days; type: organism-based; details: in vivo, po, 216 h, time 9 day
# [4] = system: Mus musculus; assay: Anti-colitis activity in ICR mouse model assessed as decrease in DSS-induced epithelial cell injury in colon tissue at 15 to 60 mg/kg, IG treated for 8 days consecutively by H and E staining based analysis; type: functional, organism-based; details: dose 15-60 mg/kg, time 8.0 day
# [5] = Toxicity in ICR mouse assessed as change in lungs index at 300 mg/kg, IG measured for 9 days; type: organism-based; details: in vivo, po, 216 h, time 9 day
# [6] = system: THP-1; assay: Anti-inflammatory activity in human THP-1 cells assessed as decrease in LPS-induced phosphorylated I-kappaB-alpha level pretreated for 1 hr followed by LPS treatment for 6 hrs by Western blot analysis; type: functional, cell-based; details: dose 1-10 µM, time 7.0 hrs
# [7] = MRT (0 to t) in colon of ICR mouse at 15 mg/kg, IG measured for 12 hrs by LC-MS/MS analysis; type: ADME, organism-based; details: po
# [8] = system: Mus musculus; assay: Anti-colitis activity in ICR mouse model assessed as decrease in DSS-induced body weight loss at 15 to 60 mg/kg, IG treated for 9 days consecutively; type: functional, organism-based; details: dose 15-60 mg/kg, time 9.0 day
# [9] = Half life in colon of ICR mouse at 15 mg/kg, IG measured for 12 hrs by LC-MS/MS analysis; type: ADME, organism-based; details: po
# [10] = Toxicity in ICR mouse assessed as change in spleen index at 300 mg/kg, IG measured for 9 days; type: organism-based; details: in vivo, po, 216 h, time 9 day
# [11] = system: THP-1; assay: Anti-inflammatory activity in human THP-1 cells assessed as decrease in LPS-induced TNF-alpha level at 10 uM pretreated for 1 hr followed by LPS treatment for 24 hrs in presence of DADA by ELISA; type: functional, cell-based; details: time 25.0 hrs
# [12] = Cmax in ICR mouse at 15 mg/kg, IG measured for 12 hrs by LC-MS/MS analysis; type: ADME, organism-based; details: in vivo, po
# [13] = system: Mus musculus; assay: Anti-colitis activity in ICR mouse model assessed as decrease in DSS-induced apoptosis in colon tissue at 15 to 60 mg/kg, IG treated for 8 days consecutively by H and E staining based analysis; type: functional, organism-based; details: dose 15-60 mg/kg, time 8.0 day
# [14] = system: Mus musculus; assay: Anti-colitis activity in ICR mouse model assessed as decrease in DSS-induced apoptosis in colon tissue at 60 mg/kg, IG treated for 8 days consecutively in presence of DADA by H and E staining based analysis; type: functional, organism-based; details: time 8.0 day
# [15] = system: Mus musculus; assay: Anti-colitis activity in ICR mouse model assessed as decrease in DSS-induced I-kappaB-alpha degradation in colon tissue at 60 mg/kg, IG treated for 8 days consecutively in presence of DADA by Western blot analysis; type: functional, organism-based; details: time 8.0 day
# [16] = AUC (0 to t) in colon of ICR mouse at 15 mg/kg, IG measured for 12 hrs by LC-MS/MS analysis; type: ADME, organism-based; details: po
# [17] = system: Mus musculus; assay: Anti-colitis activity in ICR mouse model assessed as decrease in DSS-induced inflammatory cell infiltration in colon tissue at 60 mg/kg, IG treated for 8 days consecutively in presence of DADA by H and E staining based analysis; type: functional, organism-based; details: time 8.0 day
# [18] = Cmax in Sprague-Dawley rat administered as hydroxypropyl-beta-cyclodextrin at 20 mg/kg, IG measured for 12 hrs by LC-MS/MS analysis; type: ADME, organism-based; details: in vivo, po
# [19] = system: Mus musculus; assay: Anti-colitis activity in ICR mouse model assessed as decrease in DSS-induced inflammatory cell infiltration in colon tissue at 15 to 60 mg/kg, IG treated for 8 days consecutively by H and E staining based analysis; type: functional, organism-based; details: dose 15-60 mg/kg, time 8.0 day
# [20] = system: Mus musculus; assay: Anti-colitis activity in ICR mouse model assessed as decrease in DSS-induced P65 phosphorylation in colon tissue at 60 mg/kg, IG treated for 8 days consecutively in presence of DADA by Western blot analysis; type: functional, organism-based; details: time 8.0 day
# [21] = Stability in mouse plasma assessed as half life at 10 uM preincubated for 5 mins followed by NADPH addition measured for 10 to 480 mins by LC-MS/MS analysis; type: ADME, cell-free; details: time 15-485 min
# [22] = system: THP-1; assay: Anti-inflammatory activity in human THP-1 cells assessed as decrease in LPS-induced IL-6 level pretreated for 1 hr followed by LPS treatment for 24 hrs by ELISA; type: functional, cell-based; details: dose 0.1-10 µM, time 25.0 hrs
# [23] = Toxicity in ICR mouse assessed as change in colon index at 300 mg/kg, IG measured for 9 days; type: organism-based; details: in vivo, po, 216 h, time 9 day
# [24] = system: Mus musculus; assay: Anti-colitis activity in ICR mouse model assessed as decrease in DSS-induced IL-6 level at 60 mg/kg, IG treated for 8 days consecutively in presence of DADA; type: functional, organism-based; details: time 8.0 day
# [25] = system: Mus musculus; assay: Anti-colitis activity in ICR mouse model assessed as decrease in DSS-induced pyruvate carboxylase level at 60 mg/kg, IG treated for 8 days consecutively; type: functional, organism-based; details: time 8.0 day
# [26] = system: THP-1; assay: Anti-inflammatory activity in human THP-1 cells assessed as decrease in LPS-induced TNF-alpha level pretreated for 1 hr followed by LPS treatment for 24 hrs by ELISA; type: functional, cell-based; details: dose 0.1-10 µM, time 25.0 hrs
# [27] = system: Mus musculus; assay: Anti-colitis activity in ICR mouse model assessed as reversal of DSS-induced spleen weight at 15 to 60 mg/kg, IG treated for 9 days consecutively; type: functional, organism-based; details: dose 15-60 mg/kg, time 9.0 day
# [28] = system: Mus musculus; assay: Anti-colitis activity in ICR mouse model of DSS-induced colitis assessed as effect on pyruvate carboxylase expression in colon tissue at 60 mg/kg, IG treated for 8 days consecutively by Western blot analysis; type: functional, organism-based; details: time 8.0 day
# [29] = AUC (0 to t) in ICR mouse at 15 mg/kg, IG measured for 12 hrs by LC-MS/MS analysis; type: ADME, organism-based; details: in vivo, po
# [30] = MRT (0 to t) in […] administered as hydroxypropyl-beta-cyclodextrin at 20 mg/kg, IG measured for 12 hrs by LC-MS/MS analysis; type: ADME, organism-based; details: in vivo, po
# [31] = system: Mus musculus; assay: Anti-colitis activity in ICR mouse model assessed as decrease in DSS-induced P65 phosphorylation in colon tissue at 60 mg/kg, IG treated for 8 days consecutively by Western blot analysis; type: functional, organism-based; details: time 8.0 day
# [32] = system: THP-1; assay: Anti-inflammatory activity in human THP-1 cells assessed as decrease in LPS-induced pro-IL-1beta level at 1 to 10 uM pretreated for 1 hr followed by LPS/ATP treatment for 6 hrs by Western blot analysis; type: functional, cell-based; details: dose 1-10 µM, time 7.0 hrs
# [33] = system: Mus musculus; assay: Anti-colitis activity in ICR mouse model assessed as decrease in DSS-induced IL-6 level administered intragastrically treated for 8 days consecutively; type: functional, organism-based; details: dose 15-60 mg/kg, route ig, time 8.0 day
# [34] = system: Mus musculus; assay: Anti-colitis activity in ICR mouse model assessed as decrease in DSS-induced DAI score at 60 mg/kg, IG treated for 8 days consecutively in presence of DADA; type: functional, organism-based; details: time 8.0 day
# [35] = system: Mus musculus; assay: Anti-colitis activity in ICR mouse model assessed as […] DSS-induced colon length at 60 mg/kg, IG treated for 8 days consecutively in presence of DADA; type: functional, organism-based; details: time 8.0 day
smiles,measurement,setting,value
C=C(C)[C@@H]1CC[C@]2(C(=O)NCCCCCC(=O)OC)CC[C@]3(C)[C@H](CC[C@@H]4[C@@]5(C)CC[C@H](O[C@@H]6OC[C@H](O)[C@H](O)[C@H]6O[C@@H]6O[C@@H](C)[C@H](O)[C@@H](O)[C@H]6O)[C@@](C)(CO)[C@@H]5CC[C@]43C)[C@@H]12,Activity,[1],Active
same,MRT last at 12 h,[2],3.1 h
same,Activity,[3],Non-Toxic
same,Activity,[4],Active
same,Activity,[5],Non-Toxic
same,Activity,[6],Dose-Dependent Effect
same,MRT last at 12 h,[7],3.32 h
same,Activity,[8],Active
same,half-life,[9],1.54 h
same,Activity,[10],Non-Toxic
same,Activity,[11],inactive
same,Cmax,[12],40.4 ng/mL
same,Activity,[13],Active
same,Activity,[14],inactive
same,Activity,[15],inactive
same,AUC(0-t) at 12 h,[16],3210 ng·h/mL
same,Activity,[17],inactive
same,Cmax,[18],57.5 ng/mL
same,Activity,[19],Active
same,Activity,[20],inactive
same,half-life at 10 µM,[21],1.14 min
same,Activity,[22],Dose-Dependent Effect
same,Activity,[23],Non-Toxic
same,Activity,[24],inactive
same,Activity,[25],Active
same,Activity,[26],Dose-Dependent Effect
same,Activity,[27],Active
same,Activity,[28],inactive
same,AUCt,[29],108.09 ng·h/mL
same,MRT last at 12 h,[30],4.05 h
same,Activity,[31],Active
same,Activity,[32],Active
same,Activity,[33],Dose-Dependent Effect
same,Activity,[34],inactive
same,Activity,[35],inactive
